From paper PMC4254541 (Bioorganic & medicinal chemistry letters, 2014)
Like-named read-outs stand apart in the source and are kept apart here.

How the values were obtained:
Assay type in all cases: binding
Aβ40 and Aβ42 fibrils = assay: Displacement of tritiated 1a from Aβ fibrils; conditions: benzothiazole ligands versus tritiated 1a on Aβ fibrils
[1] = target: synthetic Aβ(1–42) fibrils (Homo sapiens, UniProt P05067); assay: Displacement of 5 nM [3H]-1a
[2] = target: synthetic Aβ(1–40) fibrils (Homo sapiens, UniProt P05067); assay: Displacement of 5 nM [3H]-1a
[3] = read-out: Aβ(1–42) EC50, displacement of 5 nM [3H]-1a from synthetic Aβ(1–42) fibrils
[4] = read-out: Aβ(1–40) EC50, displacement of 5 nM [3H]-1a from synthetic Aβ(1–40) fibrils

Chain of synthetic Aβ(1–40) fibrils (P05067 672-711): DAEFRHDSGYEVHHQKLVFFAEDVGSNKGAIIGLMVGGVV
Chain of synthetic Aβ(1–42) fibrils (P05067 672-713): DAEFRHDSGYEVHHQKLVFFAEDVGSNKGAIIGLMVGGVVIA

Compound | displacing 1a (Aβ40 and Aβ42 fibrils) | EC50 [1] [µM] | EC50 [2] [µM] | EC50 [1, 3] [µM] | EC50 [2, 4] [µM]
CNc1ccc(-c2nc3ccccc3s2)cc1 [BTA-1, 2-(4´-methylaminophenyl)benzothiazole] | ineffective | – | – | – | –
O=C(O)c1cc(/N=N/c2ccc(-c3ccc(/N=N/c4ccc(O)c(C(=O)O)c4)cc3)cc2)ccc1O [Chrysamine G] | – | 0.9 | 9 | – | –
Oc1ccc(/C=C/c2ccc(/C=C/c3ccc(O)cc3)c(Br)c2)cc1 [K114, (E,E)-1-bromo-2,5-bis(4’-hydroxystyryl)benzene] | – | 3 | > 10 | – | –
COc1cc(/C=C/c2ccc(N)cc2)ccc1/C=C/c1ccc(N)cc1 [BMB, (E,E)-1-methoxy-2,5-bis(4’-aminostyryl)benzene] | – | 3 | > 10 | – | –
Nc1c(/N=N/c2ccc(-c3ccc(/N=N/c4cc(S(=O)(=O)O)c5ccccc5c4N)cc3)cc2)cc(S(=O)(=O)O)c2ccccc12 [Congo Red] | – | 0.7 | 2.3 | – | –
O=C(O)c1cc(/C=C/c2ccc(/C=C/c3ccc(O)c(C(=O)O)c3)c(Br)c2)ccc1O [BSB] | – | 0.12 | 0.23 | – | –

The remaining lines, values ahead:

displacing 1a (Aβ40 and Aβ42 fibrils) | EC50 [1] [µM] | EC50 [2] [µM] | EC50 [1, 3] [µM] | EC50 [2, 4] [µM] | Compound
ineffective | – | – | – | – | Cc1ccc2c(c1)sc(-c1ccc(N(C)C)cc1)[n+]2C.[Cl-] [ThT, Thioflavine T]
– | – | – | > 10 | > 10 | primulin
ineffective | – | – | – | – | CNc1ccc(-c2nc3ccc(O)cc3s2)cc1 [PIB, Pittsburgh Compound B]
– | – | – | > 10 | > 10 | Thioflavin S [ThS]
– | > 10 | > 10 | – | – | CC(C)Cc1ccc(C(C)C(=O)O)cc1 (stereo not drawn) [ibuprofen]
– | > 10 | > 10 | – | – | COc1ccc2cc([C@H](C)C(=O)O)ccc2c1 [naproxen]
